Laboratory results: patent US20170140097A1, “Methods For Identifying Agents With Desired Biological Activity” (The Procter & Gamble Company, priority 2012, published 2017)

Tests used:
[1] = test system: dandruff average condition profile; test: Signature-free query for agents with gene expression profiles most different from a query condition (dandruff) (FIG. 17); settings: greater distance = more likely to reverse the condition
From the text: Turning next to the method 110, FIG. 10 depicts a method 150 for performing a query for perturbagens eliciting a biological response that is dissimilar to that induced by a condition (e.g., chemicals likely to reverse a particular condition in a cell) (block 112). The method includes determining an average condition profile to use as a query (block 152), as described above. Specifically, the average condition profile (also referred to as an “adjusted condition gene expression profile”) may be calculated by finding the average expression value for each of the subset of probes used to learn the expression matrix. That is, if all of probes ID1-IDN (referring to FIG. 13) were used to learn the expression matrix, the average expression profile for a condition tested in instances 3A-10A and 3B-10B would include an average expression value for probe ID1: The average condition profile is projected onto the projection space (block 154). The distance from the average condition profile to each of the perturbagens in the projection space matrix is determined (block 156) and, at least in some embodiments, the perturbagens are ranked according to the distance of each in the projection space from the average condition profile (block 158). In some embodiments, the distance is calculated as a cosine distance. In some embodiments, the distance is calculated as a Euclidean distance. […]

MCF7 cell line = test: Signature-free query for agents with biological activity similar to estradiol in cell line MCF7 (FIG. 15); format: cell-based; settings: cell line MCF7 (expresses estrogen receptors); top five and bottom five chemicals
From the text: Using the projection space matrix, it is possible to determine the similarity (or difference) between gene expression profiles in the projection space. The methods 100 and 110, for example, perform queries for similar biological activity (block 108) and biological dissimilarity (i.e., agents most likely to reverse a clinical endpoint) (block 112), respectively, by looking at the distances between instances depicted in the projection space matrix. Turning first to the method 100, FIG. 9 depicts a method 140 for performing a query for similar biological activity between instances mapping to two points in the projection space (e.g., for performing a query for similar activity between perturbagens) (block 108). […]
A query perturbagen (also referred to as a query agent) is then selected from the perturbagens in the projection space matrix (block 144). […] The distance from the query perturbagen in the projection space is calculated for each instance (or for a selected subset of instances) in the projection space matrix (block 146). In some embodiments, the distance is calculated as a cosine distance. In some embodiments, the distance is calculated as a Euclidean distance. […]
With reference to FIGS. 15 and 16, the effect of different perturbagens on different cell types at the transcriptional level is readily apparent. […]

| Structure (SMILES) | ranking according to distance from the query condition [1] | ranking according to distance from query perturbagen estradiol (MCF7 cell line) |
| --- | --- | --- |
| CC(C)(C)C(=O)C(Oc1ccc(Cl)cc1)n1ccnc1 (stereo not shown) [Climbazole] | more distant from the query condition | – |
| CCN(CC)CCOc1ccc(C(=C(Cl)c2ccccc2)c2ccccc2)cc1 [Clomifene] | – | most dissimilar |
| C[C@]12CC[C@@H]3c4ccc(O)cc4C[C@@H](CCCCCCCCC[S+]([O-])CCCC(F)(F)C(F)(F)F)[C@H]3[C@@H]1CC[C@@H]2O (stereo partly shown) [Fulvestrant] | – | most dissimilar |
| CC(=O)N1CCN(c2ccc(OCC3COC(Cn4ccnc4)(c4ccc(Cl)cc4Cl)O3)cc2)CC1 (stereo not shown) [Ketocanozole] | more distant from the query condition | – |
